From patent US20240197742A1, “Therapeutic Combinations of a CD19 Inhibitor and a BTK Inhibitor” (Acerta Pharma B.V., priority 2015, published 2024)
Entries after “also recorded” stand apart in the source; their conditions may differ.

How the values were obtained:
[1] = In vitro metabolism in hepatocytes; format: in vitro ADME, and human; settings: ^4C-labeled Formula (2); mouse, rat, dog, rabbit, monkey, human hepatocytes
Description: No unique human metabolite was identified. Preliminary evaluations of metabolism in the plasma, bile, and urine of rats, dogs, and monkeys indicated metabolic processes of oxidation, glutathione binding, and hydrolysis.

NK cells [2] = assay: Whole blood NK cell degranulation with obinutuzumab-opsonised MEC-1 cells; format: cell-based, human; settings: 1 hour pretreatment (10, 1, 0.1 μM), MEC-1 opsonised with obinutuzumab 1 μg/mL, 4 hours, n=3
Experimental: Degranulation in whole blood was performed as follows. […] Exponentially growing cells were used. On the day of the experiment, 8 mL of blood was drawn from a normal volunteer into a test tube containing desirudin to obtain a final concentration of 50 μg/mL. A white blood cell (WBC) count of whole blood was performed. […] The ibrutinib control and two blinded BTK inhibitors were diluted in X-VIVO 15 serum-free hematopoietic cell medium (Lonza Group, Ltd.) to concentrations of 200 μM, 20 μM and 2 μM. 170 μL aliquots of unmanipulated whole blood were incubated with 10 μL BTK inhibitors or X-VIVO 15 medium for one hour into a plate. […] The samples were placed in a 5% CO2 incubator for 4 hours at 37° C.
After 4 hours, the samples were mixed gently and 50 μL aliquots were removed from each well and placed in fluorescence-activated cell sorting (FACS) test tubes. A 20 μL aliquot of anti-CD56-APC antibody and anti-CD107a-PE antibody was added. The samples were incubated for 20 minutes at room temperature in the dark. An aliquot of 2 mL of FACS lysing solution (BD Biosceinces) was added. The samples were again incubated for 5 minutes, and then centrifuged at 2000 rpm for 5 minutes. Supernatant was discarded and the cell pellet was resuspended in 500 μL of PBS. The samples were analyzed on the flow cytometer for CD107a^+ NK cells (CD56^+).

[3] = tested on: pancreatic cancer (KPC mice); assay: KPC pancreatic cancer model; format: in vivo
Experimental: The KPC mouse model recapitulates many of the molecular, histopathologic, and clinical features of human disease (Westphalen and Olive, Cancer J. 2012, 18, 502-510). Combination therapy with gemcitabine was also evaluated in this model. Mice were enrolled after identification of spontaneously appearing tumors in the pancreas that were ≥100 mm^3 (as assessed by high-resolution ultrasonography).

B cell receptor = assay: Whole blood potency: CD69 on CD19+ B cells after anti-human IgD; format: cell-based; settings: blood from four healthy donors, 2 hours with compound, anti-human IgD 10 μg/mL 18 hours, read-out: EC50, CD69 on gated CD19+ B cells in whole blood
NK cells [4] = assay: Antibody-dependent NK cell-mediated IFN-γ release (ELISA); format: cell-based, human; settings: 1 μM; trastuzumab-coated (10 μg/mL) HER18, 4 hours
Experimental: (§1) All in vitro experiments were performed in triplicate.
Cytokine secretion was determined as follows. […] NK cells from healthy donors were enriched as described above and then added to the target cells and incubated for 4 hours at 37° C. Triplicate cultures were performed on NK cells from donors. After incubation, supernatants were harvested, centrifuged briefly, and then analyzed for interferon-γ using an enzyme-linked immunosorbent assay (ELISA) (R&D Systems, Minneapolis, MN, USA).

CD8+ T cells [5] = assay: CD8+ T cell viability; format: cell-based; settings: anti-TCR and anti-CD28 coated wells, neutral conditions, 4 days
Experimental: Total T cells were plated on anti-TCR and anti-CD28 coated wells in the presence of both BTK inhibitors. Neutral culture conditions were used that will not polarize T cells to a helper lineage. […] Statistical significance was calculated using the Mann Whitney T-test.

[6] = tested on: MDSC (monocytic) and NK cells; assay: Flow cytometry of peripheral blood cell subsets in CLL patients; format: in vivo, human; settings: patients with decreasing ALC %, doses including 100 mg BID, 200 mg QD, 400 mg QD
Experimental: PBMCs were stained with monoclonal antibodies conjugated to fluorescent tags (flourochromes) to identify cell subsets via flow cytometry. Non-viable cells were excluded from the analysis using the dye 7-aminoactinomycin D (7-AAD). To produce the metric of percent change, the following steps were taken. First, each cell subset was defined by hierarchical flow cytometry gating. Then, the change in frequency (between day 1 and day 28) was calculated for each cell subset. MDSC subsets were measured as a % of all myeloid cells. T cell subsets were measured as a % of all CD3^+ cells, and NK cells were measured as a % of all live CD45^+ cells. […] A cycle is 28 days. […] This may include patients who had quickly resolving lymphocytosis and those with no initial lymphocytosis. […] This may include patients who had quickly resolving lymphocytosis and those having no initial lymphocytosis. The effects in FIG. 52 to FIG. 55 are observed in multiple cohorts, at doses including 100 mg BID, 200 mg QD, and 400 mg QD. In FIG. 56 and FIG. 57, the effects on NK cells and MDSC cells are compared to a number of other markers versus % change in ALC at C1D28 and C2D28. These other markers include CD4+ T cells, CD8+ T cells, CD4+/CD8+ T cell ratio, NK-T cells, PD-1+CD4+ T cells, and PD-1+CD8+ T cells. The effects on NK cells and MDSC cells are observed to be much more pronounced than on any of these other markers.

GPVI = GPVI platelet aggregation (convulxin); format: cell-based, human
Experimental: GPVI platelet aggregation was measured for Formula (2) and Formula (10) (ibrutinib). Blood was obtained from untreated humans, and platelets were purified from […] by centrifugation. Cells were resuspended to a final concentration of 350,000/μL in buffer containing 145 mmol/L NaCl, 10 mmol/L HEPES, 0.5 mmol/L Na2HPO4, 5 mmol/L KCl, 2 mmol/L MgCl2, 1 mmol/L CaCl2, and 0.1% glucose, at pH 7.4. Stock solutions of Convulxin (CVX) GPVI were prepared on the day of experimentation and added to platelet suspensions 5 minutes (37° C., 1200 rpm) before the induction of aggregation. Aggregation was assessed with a Chronolog Lumi-Aggregometer (model 540 VS; Chronolog, Havertown, PA) and permitted to proceed for 6 minutes after the addition of agonist. The results are reported as maximum percent change in light transmittance from baseline with platelet buffer used as a reference.
In FIG. 72, the results of CVX-induced (250 ng/mL) human platelet aggregation results before and 15 minutes after administration of the BTK inhibitors to 6 healthy individuals are shown.

NK cells [7] = assay: Antibody-dependent NK cell-mediated degranulation (CD107a); format: cell-based, human
Experimental: as §1
Lytic granule release was determined as follows. NK cells from healthy donors were enriched and cultured in the presence of target cells, monoclonal antibodies and test articles as described above. After 4 hours, the cultures were harvested and cells were pelleted, washed, and then stained for flow cytometry evaluation. Degranulation was evaluated via by flow cytometery by externalization of CD107a, a protein normally present on the inner leaflet of lytic granules, and gating on NK cells (CD3-CD16^+ lymphocytes). The percentage of CD107α positive NK cells was quantified by comparison with a negative control (isotype control, unstained cells/FMO). Control cultures (NK cells cultured without target cells, or NK, target cell co-cultures in the absence of appropriate monoclonal antibody) were also evaluated; all experiments were performed in triplicate.

CD8+ T cells [8] = assay: Cytotoxic T cell (CTL) assay; format: cell-based; settings: 500 nM, relative to vehicle
Experimental: Without being bound by any theory, CD8^+ T cells have two primary effector functions: (1) produce large amounts of IFN-γ (which activates macrophages), and (2) cytolytic activity. […] The targets were B lymphoblasts from lipopolysaccharide (LPS) treated cultures. The assay was performed by incubating different ratios of effectors:targets for 4 hours.

[9] = tested on: 80 known pharmacologic targets such as G-protein-coupled receptors, nuclear receptors, proteases, and ion channels; assay: Binding assays with 80 known pharmacologic targets; settings: screened at 10 μM
EGFR = EGFR (Homo sapiens, UniProt P00533); assay: EGF receptor phosphorylation in A431 cells (phosphoflow); settings: 10 μM; A431 human epidermoid cancer cell line
EGFR, sequence (P00533 25-1210): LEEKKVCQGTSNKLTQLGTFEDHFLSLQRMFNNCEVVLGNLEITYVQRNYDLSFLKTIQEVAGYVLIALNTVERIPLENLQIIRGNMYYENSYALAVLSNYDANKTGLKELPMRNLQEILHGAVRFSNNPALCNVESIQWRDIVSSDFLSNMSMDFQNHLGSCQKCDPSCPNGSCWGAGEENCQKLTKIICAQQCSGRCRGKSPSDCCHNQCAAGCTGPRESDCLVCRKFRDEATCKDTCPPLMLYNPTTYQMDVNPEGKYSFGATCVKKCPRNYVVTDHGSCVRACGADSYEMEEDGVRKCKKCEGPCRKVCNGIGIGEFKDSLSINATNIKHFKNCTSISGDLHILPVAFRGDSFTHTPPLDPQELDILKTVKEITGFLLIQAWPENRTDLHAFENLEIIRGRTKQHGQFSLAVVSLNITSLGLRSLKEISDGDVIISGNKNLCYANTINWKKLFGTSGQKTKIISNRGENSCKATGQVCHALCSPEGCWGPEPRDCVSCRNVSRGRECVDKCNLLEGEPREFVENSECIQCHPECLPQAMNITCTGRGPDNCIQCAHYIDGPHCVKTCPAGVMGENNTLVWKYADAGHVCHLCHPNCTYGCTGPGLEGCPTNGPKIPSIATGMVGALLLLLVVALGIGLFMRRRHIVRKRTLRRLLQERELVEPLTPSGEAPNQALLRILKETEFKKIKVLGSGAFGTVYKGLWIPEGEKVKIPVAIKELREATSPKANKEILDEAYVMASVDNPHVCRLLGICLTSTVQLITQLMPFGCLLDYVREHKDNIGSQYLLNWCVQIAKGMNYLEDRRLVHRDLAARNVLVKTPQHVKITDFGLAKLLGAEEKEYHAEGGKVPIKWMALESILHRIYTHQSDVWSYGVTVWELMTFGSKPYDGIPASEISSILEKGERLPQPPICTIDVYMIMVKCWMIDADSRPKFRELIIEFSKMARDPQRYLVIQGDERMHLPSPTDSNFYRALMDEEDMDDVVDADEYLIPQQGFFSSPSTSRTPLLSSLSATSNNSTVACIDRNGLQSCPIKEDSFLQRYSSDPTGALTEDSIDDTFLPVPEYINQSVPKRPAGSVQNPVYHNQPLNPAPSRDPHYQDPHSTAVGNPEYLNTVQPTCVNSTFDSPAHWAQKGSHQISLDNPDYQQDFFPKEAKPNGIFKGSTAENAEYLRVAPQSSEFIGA

[10] = Formula (2) 15 mg/kg BID orally

CC#CC(=O)N1CCC[C@H]1c1nc(-c2ccc(C(=O)Nc3ccccn3)cc2)c2c(N)nccn12 [Formula (2), (S)-4-(8-amino-3-(1-(but-2-ynoyl)pyrrolidin-2-yl)imidazo[1,5-α]pyrazin-1-yl)-N-(pyridin-2-yl)benzamide]
metabolites in hepatocytes [1]: two mono-oxidized metabolites and a glutathione conjugate
reduction of obinutuzumab-stimulated NK cell degranulation (CD56+/CD107a+ NK cells) (NK cells [2]): minimal effect
CD8+ cells in tumor tissues [3, 10]: significant increase
immunosuppressive MDSCs (Gr1+Ly6CHi) in tumor tissues [3, 10]: significantly reduced
immunosuppressive TAMs (CD11b+Ly6ClowF4/80+Csf1r+) in tumor tissues [3, 10]: significantly reduced
immunosuppressive Tregs (CD4+CD25+FoxP3+) in tumor tissues [3, 10]: significantly reduced
survival at day 14 [3, 10]: 6/6
survival at day 28 [3, 10]: 5/6
tumor volume, day 28 average ([3]; Formula (2) 15 mg/kg BID orally (N=6), day 28): 272 mm^3
tumor volume, predose average ([3]; cohort treated with Formula (2) 15 mg/kg BID orally (N=6), predose): 165 mm^3
EC50 (B cell receptor): 8.2 nM
inhibition of trastuzumab-stimulated NK cell cytokine release (NK cells [4]): no inhibitory effect
effect on CD8+ T cell viability (CD8+ T cells [5]): not observed; also recorded: no effect
% change in MDSC (monocytic) level over 28 days versus % ALC change ([6]; C1D28 and C2D28): increasing MDSC (monocytic) %
% change in NK cell level over 28 days versus % ALC change ([6]; C1D28 or C2D28): increasing NK cell %
effect on GPVI platelet aggregation (GPVI; CVX-induced human platelet aggregation): does not
IC50 (GPVI; purified human platelets, convulxin (CVX)): 1150 nM
inhibition of trastuzumab-stimulated NK cell degranulation (NK cells [7]; 1 μM, trastuzumab-coated (10 μg/mL) HER18, 4 hours): no inhibitory effect
reduction of rituximab-stimulated NK cell degranulation (NK cells [7]; rituximab-coated (10 μg/mL) DHL-4, 4 hours): < 2%
CD8+ T cell function as measured by % cytotoxicity (CD8+ T cells [8]; 4 days CTL generation): no effect
CD8+ T cell function as measured by IFN-γ level (CD8+ T cells [8]): no effect
activity in binding assays [9]: significant activity only against the A3 adenosine receptor
inhibition of in vitro EGFR phosphorylation (EGFR): no inhibition
